Consider eleven compounds from patent publication US20260327225A1, “HETEROCYCLIC COMPOUNDS AS TRIGGERING RECEPTOR EXPRESSED ON MYELOID CELLS 2 AGONISTS AND METHODS OF USE” (VIGIL NEUROSCIENCE, INC., priority 2023, published 2026).

SMILES strings stand for the structures.

This assay concerns the target T1, human TREM2 (Homo sapiens, UniProt Q9NZC2).
T1 construct: expressed in transfected cells; host or cells: HEK293T-hTREM2 cells (HEK cell line expressing human TREM2 and DAP12)
As to the kind of experiment: TREM2 agonist potency by cellular phosphorylation of Syk (AlphaLisa) in HEK293T-hTREM2 cells expressing human TREM2 and DAP12. It is filed as cell-based. To be noted: HEK293 cells expressing hTREM2 and DAP12; 45 minutes at room temperature; Syk phosphorylation, AlphaLisa; read-out: hTREM2 EC50. The procedure, abridged:
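HEK293T cells co-expressing human TREM2 and DAP12 were exposed to compound in assay buffer for 45 min at room temperature, then lysed. Phospho-Syk measured by AlphaLisa; % activation fitted with a four-parameter agonist curve to give EC50.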

T1 sequence (Q9NZC2 19-230): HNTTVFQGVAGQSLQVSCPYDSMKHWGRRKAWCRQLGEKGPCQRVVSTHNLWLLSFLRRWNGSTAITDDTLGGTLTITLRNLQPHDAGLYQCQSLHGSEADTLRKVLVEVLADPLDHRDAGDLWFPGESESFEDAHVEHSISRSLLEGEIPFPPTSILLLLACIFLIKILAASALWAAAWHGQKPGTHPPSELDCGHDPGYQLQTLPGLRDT
T1 sequence (O43914 22-113 partner): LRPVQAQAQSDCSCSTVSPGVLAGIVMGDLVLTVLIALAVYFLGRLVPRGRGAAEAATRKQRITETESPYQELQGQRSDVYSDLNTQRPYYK

As to `Cc1nc2nc([C@H]3CCO[C@@H](c4cn(C)c(=O)s4)C3)nc(C34CC(C(F)(F)F)(C3)C4)c2nc1C` [Example 108, 5-[(2R,4S)-4-[6,7-dimethyl-4-[3-(trifluoromethyl)-1-bicyclo[1.1.1]pentanyl]pteridin-2-yl]tetrahydropyran-2-yl]-3-methyl-thiazol-2-one], the EC50 was less than 100 nM.
Consider `Cc1nc2nc(C3CCOC(c4ccn5nccc5c4)C3)nc(C34CC(C(F)(F)F)(C3)C4)c2nc1C` (centres unmarked) [Example 109, 6,7-dimethyl-2-(2-pyrazolo[1,5-a]pyridin-5-yltetrahydropyran-4-yl)-4-[3-(trifluoromethyl)-1-bicyclo[1.1.1]pentanyl]pteridine], for which the EC50 was less than 100 nM.
The same measure for `Cc1nc2nc(C3CCOC(C4CCn5nccc5C4)C3)nc(C34CC(C(F)(F)F)(C3)C4)c2nc1C` (centres unmarked) [Example 110, 6,7-dimethyl-2-[2-(4,5,6,7-tetrahydropyrazolo[1,5-a]pyridin-5-yl)tetrahydropyran-4-yl]-4-[3-(trifluoromethyl)-1-bicyclo[1.1.1]pentanyl]pteridine]: less than 100 nM; for `Cc1nc2nc(N3C[C@@H](C)O[C@@H](c4ccn5nccc5c4)C3)nc(C34CC(C(F)(F)F)(C3)C4)c2nc1C` [Example 111, (2R,6S)-4-[6,7-dimethyl-4-[3-(trifluoromethyl)-1-bicyclo[1.1.1]pentanyl]pteridin-2-yl]-2-methyl-6-pyrazolo[1,5-a]pyridin-5-yl-morpholine]: less than 100 nM; for `Cc1nc2ccc(C3CC(c4nc(-c5ccc(F)cc5F)c5nc(C)c(C)nc5n4)CCO3)cc2o1` (centres unmarked) [Example 113, 6-[4-[4-(2,4-difluorophenyl)-6,7-dimethyl-pteridin-2-yl]tetrahydropyran-2-yl]-2-methyl-1,3-benzoxazole]: less than 100 nM.
For `Cc1nc2nc(C3CCOC(c4ccc5nn(C)cc5c4)C3)nc(-c3ccc(F)cc3F)c2nc1C` (centres unmarked) [Example 114, 4-(2,4-difluorophenyl)-6,7-dimethyl-2-[2-(2-methylindazol-5-yl)tetrahydropyran-4-yl]pteridine] the value was less than 100 nM; for `Cc1nc2ccc(C3CC(c4nc(-c5ccc(F)cc5F)c5nc(C)c(C)nc5n4)CCO3)cc2s1` (centres unmarked) [Example 115, 6-[4-[4-(2,4-difluorophenyl)-6,7-dimethyl-pteridin-2-yl]tetrahydropyran-2-yl]-2-methyl-1,3-benzothiazole], less than 100 nM.
For `Cc1cc2cc(C3CC(c4nc(-c5ccc(F)cc5F)c5nc(C)c(C)nc5n4)CCO3)ccn2n1` (centres unmarked) [Example 116, 4-(2,4-difluorophenyl)-6,7-dimethyl-2-[2-(2-methylpyrazolo-[1,5-a]pyridin-5-yl)tetrahydropyran-4-yl]pteridine] the value was less than 100 nM; for `Cc1nc2nc([C@H]3CCO[C@@H](c4cnn(C5CC5)c4)C3)nc(C34CC(C#N)(C3)C4)c2nc1C` [Example 119, 3-(2-((2R,4S)-2-(1-cyclopropyl-1H-pyrazol-4-yl)tetrahydro-2H-pyran-4-yl)-6,7-dimethylpteridin-4-yl)bicyclo[1.1.1]pentane-1-carbonitrile], 100 to 500 nM.
Turning to `Cc1nc2nc(N3C[C@@H](C)O[C@@H](c4cnn(C5CC5)c4)C3)nc(C34C5C6C7C5C3C7C64)c2nc1C` (stereo partly drawn) [Example 121, (2S,6R)-4-(4-cuban-1-yl-6,7-dimethyl-pteridin-2-yl)-2-(1-cyclopropylpyrazol-4-yl)-6-methyl-morpholine], the EC50 was in the range of 100 to 500 nM.
For `Cc1nc2nc(C3CCOC(c4cnn5c4CCCC5)C3)nc(C34CC(C(F)(F)F)(C3)C4)c2nc1C` (centres unmarked) [Example 123, 6,7-dimethyl-2-[2-(4,5,6,7-tetrahydropyrazolo[1,5-a]pyridin-3-yl)tetrahydropyran-4-yl]-4-[3-(trifluoromethyl)-1-bicyclo[1.1.1]pentanyl]pteridine], the EC50 is greater than 500 nM.
